The values that follow come from US7964607B2, “Pyrazolo[3,4-d]pyrimidine compounds” (Pfizer Inc., priority 2007, dated 2011).

pIC50: −log10 of the molar value.

The target of the first assay is T1, human recombinant PDE9 enzyme (Homo sapiens, UniProt O76083).
T1 construct: made in house; host or cells: SF-9 insect cells
T1 sequence (O76083 whole entry): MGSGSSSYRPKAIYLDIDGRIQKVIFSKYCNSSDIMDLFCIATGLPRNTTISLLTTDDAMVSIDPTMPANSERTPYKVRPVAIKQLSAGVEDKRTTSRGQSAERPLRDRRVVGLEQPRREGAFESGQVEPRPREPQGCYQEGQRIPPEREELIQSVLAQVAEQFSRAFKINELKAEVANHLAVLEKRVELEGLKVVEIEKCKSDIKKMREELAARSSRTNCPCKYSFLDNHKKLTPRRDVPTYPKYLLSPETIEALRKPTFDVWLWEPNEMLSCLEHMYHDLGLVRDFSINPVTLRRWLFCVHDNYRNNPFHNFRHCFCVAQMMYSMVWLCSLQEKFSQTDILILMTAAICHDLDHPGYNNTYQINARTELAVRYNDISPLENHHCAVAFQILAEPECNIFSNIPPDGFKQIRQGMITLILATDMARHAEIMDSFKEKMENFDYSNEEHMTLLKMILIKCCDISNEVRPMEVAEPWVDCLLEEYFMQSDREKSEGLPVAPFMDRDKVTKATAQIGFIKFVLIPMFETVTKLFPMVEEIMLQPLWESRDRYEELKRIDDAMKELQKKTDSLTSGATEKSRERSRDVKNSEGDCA
Description: Phosphodiesterase 9 (PDE9) inhibitory activity, Scintillation Proximity (SPA) assay. The class given is biochemical. The note with it: human recombinant PDE9 from SF-9 cells; 50 nM [3H]cGMP; room temperature, 30 min; Examples 3-114; read-out: G5678A (U): IC50. The procedure: Phosphodiesterase 9 (PDE9) Inhibitory Activity The PDE9 assay was performed using the Phosphodiesterase Scintillation Proximity (SPA) assay (GE Healthcare Life Sciences). […] The human recombinant PDE9 enzyme was generated in SF-9 cells, the cell pellets were sonicated in buffer (20 mM TRIS, 2 mM benzamidine, 1 mM EDTA, 250 mM sucrose, 100 μM PMSF, pH 7.5 with HCl), centrifuged at 40,000×g for 20 min at 4° C. The supernatants were stored at −80° C. […] Test compounds were dissolved in DMSO, diluted in DI H2O and serially diluted in 20% DMSO/80% H2O, for a final concentration of 2% DMSO. For the assay the PDE9 was diluted with assay buffer such that 20% or less of the substrate was hydrolyzed to 5′GMP. Each assay well contained 10 μl of test compound or solvent, 40 μl of [^3H]CGMP and 50 μl of enzyme, background was determined by a high concentration of a PDE inhibitor. The assay was initiated with the addition of the enzyme and carried out at room temperature for 30 min. […] The plates were sealed, vortexed, allowed to set for >300 min, then counted in a Wallac TriLux MicroBeta LSC.
Broadly, the pIC50 is the IC50 on a negative log10 scale, so that one unit is a factor of ten. Take `CC(C)[C@@H]1CN(Cc2ccccc2)C[C@H]1c1nc2c(cnn2C2CCCC2)c(=O)[nH]1` (racemic) [Example 21, 6-[(3,4-trans)-1-benzyl-4-isopropylpyrrolidin-3-yl]-1-cyclopentyl-1,5-dihydro-4H-pyrazolo[3,4-d]pyrimidin-4-one]: the pIC50 is 7.46.
Same read-out and setting: as for `CC[C@@H]1CN(Cc2ccccc2)C[C@H]1c1nc2c(cnn2C(C)C)c(=O)[nH]1` (racemic) [Example 39, 6-[(3,4-trans)-1-benzyl-4-ethylpyrrolidin-3-yl]-1-isopropyl-1,5-dihydro-4H-pyrazolo[3,4-d]pyrimidin-4-one], the figure is 7.24.
The same measure, in the same setting: the result for `Cc1cccc(CN2C[C@@H](C)[C@H](c3nc4c(cnn4C4CCOCC4)c(=O)[nH]3)C2)n1` [Example 95, 6-{(3S,4S)-4-methyl-1-[(6-methylpyridin-2-yl)methyl]pyrrolidin-3-yl}-1-(tetrahydro-2H-pyran-4-yl)-1,5-dihydro-4H-pyrazolo[3,4-d]pyrimidin-4-one] reads 8.41.
The same measure, in the same setting: as for `C[C@@H]1CN(Cc2ccccc2)C[C@H]1c1nc2c(cnn2C2CCC2)c(=O)[nH]1` (racemic) [Example 72, 6-[(3,4-trans)-1-benzyl-4-methylpyrrolidin-3-yl]-1-cyclobutyl-1,5-dihydro-4H-pyrazolo[3,4-d]pyrimidin-4-one], the figure is 7.40.
`CC(C)n1ncc2c(=O)[nH]c([C@@H]3CN(Cc4ccnc5ccccc45)C[C@H]3C)nc21` [Example 67]: the pIC50 was 8.01.
`Cc1nn(C2CCOCC2)c2nc([C@@H]3CN(Cc4ccccc4)C[C@H]3C)[nH]c(=O)c12` [Example 88, 6-[(3S,4S)-1-benzyl-4-methylpyrrolidin-3-yl]-3-methyl-1-(tetrahydro-2H-pyran-4-yl)-1,5-dihydro-4H-pyrazolo[3,4-d]pyrimidin-4-one]: the pIC50 was 7.75.
The same measure, in the same setting: as for `C[C@@H]1CN(Cc2ccc(C(F)(F)F)cc2)C[C@H]1c1nc2c(cnn2C2CCOCC2)c(=O)[nH]1` [Example 91, 6-{(3S,4S)-4-methyl-1-[4-(trifluoromethyl)benzyl]pyrrolidin-3-yl}-1-(tetrahydro-2H-pyran-4-yl)-1,5-dihydro-4H-pyrazolo[3,4-d]pyrimidin-4-one], the figure is 8.17.
The same measure, in the same setting: as for `O=c1[nH]c([C@@H]2CN(Cc3ccccc3)C[C@H]2C(F)(F)F)nc2c1cnn2C1CCCC1` (racemic) [Example 35, 6-[(3,4-trans)-1-benzyl-4-(trifluoromethyl)pyrrolidin-3-yl]-1-cyclopentyl-1,5-dihydro-4H-pyrazolo[3,4-d]pyrimidin-4-one], the figure is 7.27.

Staying with this assay, now noted: human recombinant PDE9 from SF-9 cells; 50 nM [3H]cGMP; room temperature, 30 min; additional compounds Ex. 115-228; read-out: G5678A (U):IC50.
In the case of `Cc1ccc(CN2C[C@@H](C)[C@H](c3nc4c(cnn4C4CCCC4)c(=O)[nH]3)C2)cc1F` (relative stereo) [Example 143, 1-cyclopentyl-6-[(3,4-trans)-1-(3-fluoro-4-methylbenzyl)-4-methylpyrrolidin-3-yl]-1,5-dihydro-4H-pyrazolo[3,4-d]pyrimidin-4-one], the pIC50 is 7.45.
For the molecule `COc1ccc(CN2C[C@@H](C)[C@H](c3nc4c(cnn4C4CCCC4)c(=O)[nH]3)C2)c(OC)c1` (racemic) [Example 206, 1-cyclopentyl-6-[(3,4-trans)-1-(2,4-dimethoxybenzyl)-4-methylpyrrolidin-3-yl]-1,5-dihydro-4H-pyrazolo[3,4-d]pyrimidin-4-one], the pIC50 is 7.16.
Still for that read-out and setting: as for `COc1cc(CN2C[C@@H](C)[C@H](c3nc4c(cnn4C4CCCC4)c(=O)[nH]3)C2)ccc1F` (racemic) [Example 148, 1-cyclopentyl-6-[(3,4-trans)-1-(4-fluoro-3-methoxybenzyl)-4-methylpyrrolidin-3-yl]-1,5-dihydro-4H-pyrazolo[3,4-d]pyrimidin-4-one], the figure is 7.44.
With `C[C@@H]1CN(Cc2ccc3c(c2)CCO3)C[C@H]1c1nc2c(cnn2C2CCCC2)c(=O)[nH]1` (racemic) [Example 216, 1-cyclopentyl-6-[(3,4-trans)-1-(2,3-dihydro-1-benzofuran-5-ylmethyl)-4-methylpyrrolidin-3-yl]-1,5-dihydro-4H-pyrazolo[3,4-d]pyrimidin-4-one], the pIC50 is 7.76.
Still for that read-out and setting: as for `C[C@@H]1CN(Cc2coc(-c3ccccc3)n2)C[C@H]1c1nc2c(cnn2C2CCCC2)c(=O)[nH]1` (racemic) [Example 179, 1-cyclopentyl-6-{(3,4-trans)-4-methyl-1-[(2-phenyl-1,3-oxazol-4-yl)methyl]pyrrolidin-3-yl}-1,5-dihydro-4H-pyrazolo[3,4-d]pyrimidin-4-one], the figure is 7.33.
Same read-out and setting: as for `C[C@@H]1CN(Cc2cc(Cl)cc(Cl)c2)C[C@H]1c1nc2c(cnn2C2CCCC2)c(=O)[nH]1` (racemic) [Example 187, 1-cyclopentyl-6-[(3,4-trans)-1-(3,5-dichlorobenzyl)-4-methylpyrrolidin-3-yl]-1,5-dihydro-4H-pyrazolo[3,4-d]pyrimidin-4-one], the figure is 7.15; as for `C[C@@H]1CN(Cc2cccc(-n3cccn3)c2)C[C@H]1c1nc2c(cnn2C2CCCC2)c(=O)[nH]1` (racemic) [Example 115, 1-cyclopentyl-6-{(3,4-trans)-4-methyl-1-[3-(1H-pyrazol-1-yl)benzyl]pyrrolidin-3-yl}-1,5-dihydro-4H-pyrazolo[3,4-d]pyrimidin-4-one], 7.39.
On the same count and under the same terms, the result for `C[C@@H]1CN(Cc2ccccc2C#N)C[C@H]1c1nc2c(cnn2C2CCCC2)c(=O)[nH]1` (racemic) [Example 157, 2-{[(3,4-trans)-3-(1-cyclopentyl-4-oxo-4,5-dihydro-1H-pyrazolo[3,4-d]pyrimidin-6-yl)-4-methylpyrrolidin-1-yl]methyl}benzonitrile] reads 7.25.
As for `Cc1ccc(CN2C[C@@H](C)[C@H](c3nc4c(cnn4C4CCCC4)c(=O)[nH]3)C2)c(C)c1` (racemic) [Example 151, 1-cyclopentyl-6-[(3,4-trans)-1-(2,4-dimethylbenzyl)-4-methylpyrrolidin-3-yl]-1,5-dihydro-4H-pyrazolo[3,4-d]pyrimidin-4-one], the pIC50 was 6.93.
Regarding `C[C@@H]1CN(Cc2cnn3c2CCCC3)C[C@H]1c1nc2c(cnn2C2CCCC2)c(=O)[nH]1` (racemic) [Example 121, 1-cyclopentyl-6-[(3,4-trans)-4-methyl-1-(4,5,6,7-tetrahydropyrazolo[1,5-a]pyridin-3-ylmethyl)pyrrolidin-3-yl]-1,5-dihydro-4H-pyrazolo[3,4-d]pyrimidin-4-one], the negative-log IC50 (pIC50) was 7.08.
Consider `C[C@@H]1CN(Cc2ccc(F)cc2Cl)C[C@H]1c1nc2c(cnn2C2CCCC2)c(=O)[nH]1` (racemic) [Example 150, 6-[(3,4-trans)-1-(2-chloro 4-fluorobenzyl)-4-methylpyrrolidin-3-yl]-1-cyclopentyl-1,5-dihydro-4H-pyrazolo[3,4-] pyrimidin-4-one], for which the pIC50 was 7.03.
Consider `Cc1cc(CN2CC(C)C(c3nc4c(cnn4C4CCCC4)c(=O)[nH]3)C2)n(C)n1` (stereo not drawn) [Example 133, 1-cyclopentyl-6-{(3,4-trans)-1-[(1,3-dimethyl-1H-pyrazol-5-yl)methyl]-4-methylpyrrolidin-3-yl}-1,5-dihydro-4H-pyrazolo[3,4-d]pyrimidin-4-one], for which the pIC50 was 7.47.
The same measure, in the same setting: the result for `Cc1ccc(CN2C[C@@H](C)[C@H](c3nc4c(cnn4C4CCCC4)c(=O)[nH]3)C2)cc1C` (racemic) [Example 198, 1-cyclopentyl-6-[(3,4-trans)-1-(3,4-dimethylbenzyl)-4-methylpyrrolidin-3-yl]-1,5-dihydro-4H-pyrazolo[3,4-d]pyrimidin-4-one] reads 7.03.
